According to patent US7973162B2, “Modulators of muscarinic receptors” (Vertex Pharmaceuticals Incorporated, priority 2007, dated 2011):

Experiments:
Assay type in all cases: cell-based
M4 muscarinic receptor = molecular target: T1, M4 muscarinic receptor (Homo sapiens, UniProt P08173); assay: Functional mobilization of intracellular calcium (FLIPR), M4-CHO cells; conditions: for EC50: CHO cells expressing M4, calcium mobilization
T1 construct: expressed in transfected cells; host or cells: CHO (M4-CHO)
T1 sequence (P08173 1-479): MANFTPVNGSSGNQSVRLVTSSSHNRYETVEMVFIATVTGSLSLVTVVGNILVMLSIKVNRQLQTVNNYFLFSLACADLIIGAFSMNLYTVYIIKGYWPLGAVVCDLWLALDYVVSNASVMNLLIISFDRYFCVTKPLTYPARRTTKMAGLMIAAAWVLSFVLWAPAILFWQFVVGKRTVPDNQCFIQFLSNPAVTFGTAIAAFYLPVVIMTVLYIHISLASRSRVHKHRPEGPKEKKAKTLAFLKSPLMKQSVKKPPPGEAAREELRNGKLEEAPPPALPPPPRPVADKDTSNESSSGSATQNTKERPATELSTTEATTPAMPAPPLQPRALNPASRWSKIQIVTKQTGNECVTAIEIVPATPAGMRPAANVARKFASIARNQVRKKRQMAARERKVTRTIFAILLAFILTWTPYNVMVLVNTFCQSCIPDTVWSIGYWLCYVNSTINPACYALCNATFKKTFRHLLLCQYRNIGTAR
Procedure: (§1) Functional Mobilization of Intracellular Calcium to Determine Muscarinic Receptor Activity:
(§2) CHO cells expressing muscarinic receptors (M1 to M5) are grown as monolayers in tissue culture flasks at 37° C. in a humidified atmosphere containing 5% CO2 and passaged every 3-5 days. The growth media is Dulbecco's modified eagles medium (DMEM, Gibco Cat# 12430-054), containing 25 mM Hepes and supplemented with Fetal Bovine Serum (Hyclone, cat #SH30071.03), 0.1 mM of MEM non-essential amino acids (GIBCO, Cat #11140-050), 1 mM MEM Sodium Pyruvate (GIBCO Cat #11360-070) and 100 units/ml of Penicillin G and 100 μg/ml of Streptomycin (GIBCO Cat #15140-122). The recombinant muscarinic receptor cell lines are grown under antibiotic pressure with media containing 25 μg/ml zeocin and 500 μg/ml G418 (M1-CHO), 4 μg/ml puromycin, 50 μg/ml zeocin and 2.5 μg/ml blasticidin (M2 and M4-CHO) or 50 μg/ml zeocin and 4 μg/ml puromycin (M3 and M5-CHO).
(§3) Cells are harvested at 80-90% confluence using Versene (GIBCO Cat #15040-066), collected by centrifugation and seeded 18-24 hrs prior to running the calcium assay at a density of 5,000-10,000 cells/well in […], clear-bottomed 384-well plates (BD Biocoat, poly-D-lysine, Cat#356663). The day of the experiment, the cells are washed with a plate washer (Bioteck Instruments, ELX 405) using bath1 buffer (140-mM NaCl, 4.5-mM KCl, 2-mM CaCl2, 1-mM MgCl2, 10-mM Hepes-Na, 10-mM Glucose, pH 7.4, with NaOH) containing 1 mM Probenecid. Next, the calcium dye Fluo-3 (25 μl/well of Fluo-3 AM at 4 μM, Molecular Probes F-1241, in Bath 1 buffer containing 1 mM Probenecid) is added to the 25 μl of Bath 1 remaining in each well after the plate wash and the dye is loaded at 37° C. in the tissue culture incubator for 60-90 min. The fluorescent dye is removed using the plate washer with Bath 1 containing 1 mM Probenecid, leaving 25 μl/well of this solution after the wash. Alternatively, cells can be loaded with the calcium indicator from Molecular Devices (Calcium 3 Assay Reagents, Cat #R7181) adding 5 μl of a 5× solution dye in Bath 1 containing 1 mM Probenecid (10 ml per dye flask cat #R7182 to generate a solution 20×) to 20 μl of the same buffer. After loading for 60 min, the experiment can be run without having to remove the dye.
(§4) Compounds are prepared at a 2× fold concentration in a 96-well plate (round bottom, Costar Corning cat #3656), by reconstituting the pre-spotted compounds in bath 1 containing 1 mM probenecid. The final concentration DMSO is 0.5%, and the amount of DMSO is normalized across the assay plate. To determine an agonist action of the compounds on muscarinic receptors, the reconstituted compounds are added (25 μl compound/well) to the cell assay plate (containing 25 μl/well) using the multi-channel robotic system of the FLIPR 3 Instrument (Molecular Devices, Sunnyvale, Calif.). To determine a functional inhibitory action of the compounds on muscarinic receptors, the reconstituted compounds are added (25 μl compound/well) to the assay plate and pre-incubated for 15 min prior to adding 25 μl of Carbachol at 3× the EC80 for each muscarinic subtype. Alternatively, the compounds can be co-applied simultaneously with the agonist. In both assay modes, the fluorescence is recorded for 60 sec (excitation wavelength is […] and emission wavelength 540 nm) using the FLIPR 3 instrument.
(§5) The potency, efficacy and selectivity of the muscarinic compounds were evaluated by screening the compound activity across the whole family (M1 to M5 cells). Compounds were also screened for activity on other proteins such as other GPCRs and ion channels to determine selectivity on M4 receptors.
(§6) Examples of activities and efficacies of the muscarinic compounds of formulae (I, Ia, and Ib) on modulating M1 and M4 receptors are shown below in Table 3. […]

M3 muscarinic receptor = molecular target: T2, M3 muscarinic receptor (Homo sapiens, UniProt P20309); assay: Functional mobilization of intracellular calcium (FLIPR), M3-CHO cells; conditions: for EC50: CHO cells expressing M3, calcium mobilization
T2 construct: expressed in transfected cells; host or cells: CHO (M3-CHO)
Procedure: as §1, §2, §3, §4, §5, §6

M2 muscarinic receptor = molecular target: T3, M2 muscarinic receptor (Homo sapiens, UniProt P08172); assay: Functional mobilization of intracellular calcium (FLIPR), M2-CHO cells; conditions: for EC50: CHO cells expressing M2, calcium mobilization
T3 construct: expressed in transfected cells; host or cells: CHO (M2-CHO)
T3 sequence (P08172 1-466): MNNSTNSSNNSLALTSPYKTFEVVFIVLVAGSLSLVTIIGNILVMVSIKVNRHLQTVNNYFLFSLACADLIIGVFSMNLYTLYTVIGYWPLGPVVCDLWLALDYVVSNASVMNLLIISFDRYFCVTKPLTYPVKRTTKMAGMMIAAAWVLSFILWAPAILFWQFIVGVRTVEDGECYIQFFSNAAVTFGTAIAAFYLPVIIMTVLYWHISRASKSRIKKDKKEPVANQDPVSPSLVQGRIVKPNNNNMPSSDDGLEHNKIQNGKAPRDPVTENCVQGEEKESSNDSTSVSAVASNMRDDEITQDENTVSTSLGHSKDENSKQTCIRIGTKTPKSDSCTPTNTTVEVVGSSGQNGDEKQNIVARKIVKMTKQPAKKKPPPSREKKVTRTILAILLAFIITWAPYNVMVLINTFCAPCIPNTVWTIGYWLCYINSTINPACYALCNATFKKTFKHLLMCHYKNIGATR
Procedure: as §1, §2, §3, §4, §5, §6

M1 muscarinic receptor = molecular target: T4, M1 muscarinic receptor (Homo sapiens, UniProt P11229); assay: Functional mobilization of intracellular calcium (FLIPR), M1-CHO cells; conditions: for EC50: CHO cells expressing M1, calcium mobilization
T4 construct: expressed in transfected cells; host or cells: CHO (M1-CHO)
T4 sequence (P11229 1-460): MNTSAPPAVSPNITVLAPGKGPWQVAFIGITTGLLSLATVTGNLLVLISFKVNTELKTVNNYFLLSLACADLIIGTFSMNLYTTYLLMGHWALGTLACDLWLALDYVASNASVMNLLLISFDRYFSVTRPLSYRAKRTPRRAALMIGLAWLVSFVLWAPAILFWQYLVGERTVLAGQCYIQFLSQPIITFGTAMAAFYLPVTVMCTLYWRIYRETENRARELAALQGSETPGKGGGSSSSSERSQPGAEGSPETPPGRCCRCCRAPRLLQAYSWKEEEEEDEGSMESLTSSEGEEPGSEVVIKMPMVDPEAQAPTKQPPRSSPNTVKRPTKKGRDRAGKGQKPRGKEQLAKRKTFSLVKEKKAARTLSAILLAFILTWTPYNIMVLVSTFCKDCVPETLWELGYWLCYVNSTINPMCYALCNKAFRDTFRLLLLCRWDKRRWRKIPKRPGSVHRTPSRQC
Procedure: as §1, §2, §3, §4, §5, §6

[1] = 100% efficacy = maximum response obtained with the Carbachol control

T2 sequence (P20309 whole entry): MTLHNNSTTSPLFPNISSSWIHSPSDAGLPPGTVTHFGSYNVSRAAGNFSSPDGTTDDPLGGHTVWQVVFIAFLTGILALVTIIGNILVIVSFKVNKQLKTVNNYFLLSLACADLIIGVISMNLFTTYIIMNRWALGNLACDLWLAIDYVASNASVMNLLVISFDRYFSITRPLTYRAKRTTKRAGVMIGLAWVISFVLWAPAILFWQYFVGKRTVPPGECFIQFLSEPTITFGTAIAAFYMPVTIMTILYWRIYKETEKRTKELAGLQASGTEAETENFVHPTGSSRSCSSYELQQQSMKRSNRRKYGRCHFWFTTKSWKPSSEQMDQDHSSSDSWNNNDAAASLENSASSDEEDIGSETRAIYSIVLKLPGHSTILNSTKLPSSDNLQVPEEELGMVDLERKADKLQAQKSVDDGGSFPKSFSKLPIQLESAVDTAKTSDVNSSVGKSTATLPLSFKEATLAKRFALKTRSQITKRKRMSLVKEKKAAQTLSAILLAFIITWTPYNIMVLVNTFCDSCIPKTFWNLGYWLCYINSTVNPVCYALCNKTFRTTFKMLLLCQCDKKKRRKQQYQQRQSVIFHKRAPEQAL

With `CN1C(=O)C[C@@H]2CC3(CCN(C4CC5CCC(C5)C4)CC3)c3ccccc3[C@@H]21` (stereo partly drawn) [Compound 3] the “M4 Efficacy” value (M4 muscarinic receptor; [1]) was “++ (efficacy was calculated to be from 100% to 25%)”, the EC50 (M4 muscarinic receptor) was under 2000 nM and the “M3 Efficacy” value (M3 muscarinic receptor; [1]) was “+ (efficacy was calculated to be less than 25%)”. The EC50 (M3 muscarinic receptor) was over 5000 nM, the “M2 Efficacy” value (M2 muscarinic receptor; [1]) was “+ (efficacy was calculated to be less than 25%)” and the EC50 (M2 muscarinic receptor) was under 2000 nM. The “M1 Efficacy” value (M1 muscarinic receptor; [1]) was “++ (efficacy was calculated to be from 100% to 25%)” and the EC50 (M1 muscarinic receptor) was under 2000 nM.
For `COCCN1C(=O)C[C@@H]2CC3(CCN(C4CCCCC4)CC3)c3ccccc3[C@@H]21` [Compound 16], the Emax (M4 muscarinic receptor; [1]) was 25 to 100%, the EC50 (M4 muscarinic receptor) was under 2000 nM and the Emax (M3 muscarinic receptor; [1]) was under 25%. For the same molecule, the EC50 (M3 muscarinic receptor) was over 5000 nM, the Emax (M2 muscarinic receptor; [1]) was under 25% and the EC50 (M2 muscarinic receptor) was over 5000 nM. The Emax (M1 muscarinic receptor; [1]) was under 25% and the EC50 (M1 muscarinic receptor) was over 5000 nM.
`CCOC(=O)N1CCC(N2CCC3(CC2)C[C@H]2CC(=O)N[C@H]2c2ccccc23)CC1` [Compound 9] gave an Emax (M4 muscarinic receptor; [1]) of 25 to 100%, an EC50 (M4 muscarinic receptor) of under 2000 nM and an Emax (M3 muscarinic receptor; [1]) of 25 to 100%. For the same molecule, the EC50 (M3 muscarinic receptor) was under 2000 nM, the Emax (M2 muscarinic receptor; [1]) was 25 to 100% and the EC50 (M2 muscarinic receptor) was under 2000 nM. The Emax (M1 muscarinic receptor; [1]) was 25 to 100% and the EC50 (M1 muscarinic receptor) was under 2000 nM.
